Tests used:
Assay type in all cases: cell-based, human
[1] = test system: BDNF; assay: BDNF production in HUVEC, serum-free medium (BDNF Emax immunoassay); settings: for lowest dose able to stimulate significant BDNF expression: serum-free medium, 24 hours stimulation, dose response 1×10^−14M to 1×10^−6M
Description: (§1) Prior to stimulation, cells were washed twice with sterile PBS and then provided with the respective serum free cell medium. Cells were incubated in the serum-free medium for one hour and afterwards stimulated for 24 hours. For the dose response measurement the peptides were used in a range from 1×10^−14M to 1×10^−6M. For all other experiments, a 1×10^−7M concentration of the peptides was used, whereas isoproterenol and forskolin were used in a 10^−6M concentration. To maintain the concentration of the substances over a period of 24 hours they were added again into the medium after 12 hours. After stimulation, the concentration of BDNF was determined in the cell medium. The samples were either used directly or stored at −80° C.
(§2) For the determination of the concentration of BDNF the BDNF Emax® immunoassay system from Promega was used. At first, 96-well plates were coated with anti-BDNF overnight at 4° C. The next day, the plates were washed with TBST and incubated with blocking buffer for one hour at room temperature. Afterwards, the plate was washed again with TBST, and 100 μl of sample were applied per well. The plate was incubated on a shaker (˜400 rpm) for two hours at room temperature and later on washed five times with TBST. To each well 100 μl pAb anti-human BDNF were added, and the plate again incubated under continuous shaking for two hours at room temperature. Thereafter, the plate was washed five times with TBST, each well applied with 100 μl anti-IgY-HRP conjugate, and incubated at room temperature with shaking for one hour. Then, the plate was washed five times with TBST and incubated for 10 min at room temperature on a shaker with TMB One Solution. The reaction was stopped with 1 M hydrochloric acid and the absorbance was measured immediately at 450 nm. The BDNF concentration was determined from a standard curve.

[2] = test system: BDNF; assay: BDNF production in HDMEC, serum-free medium (BDNF Emax immunoassay); settings: for lowest dose able to stimulate significant BDNF expression: serum-free medium, 24 hours stimulation, dose response 1×10^−14M to 1×10^−6M
Description: as §1, §2

[3] = test system: BDNF; assay: BDNF production in HUVEC in complete (serum-containing) medium; settings: peptide 1×10^−7M, 24 hours
Description: as §1, with “[…] […]” for “Prior to stimulation, cells were washed twice with sterile PBS and then provided with the respective serum free cell medium. Cells were incubated in the serum-free medium for one hour and afterwards stimulated for 24 hours.”
as §2, with “Thereafter, the plate was washed five times with TBST, each well applied with 100 μl anti-IgY-HRP conjugate, and incubated at room temperature with shaking for one hour. Then, the plate was washed five times with TBST and incubated for 10 min at room temperature on a shaker with TMB One Solution.” left out, “curve. […]” for “curve.”

[4] = test system: cAMP; assay: cAMP production in HUVEC (cAMP enzyme immunoassay); settings: 15 minutes of stimulation
Description: Prior to stimulation with Ala^1-Arg^2-Val^3-Ser^4-Ile^5-His^6-Cys^7 (SEQ ID NO: 24), HUVEC cells were washed twice with PBS and then incubated for 1 hour in serum-free medium. In this Example, in order to generate a dose response curve, the peptide concentration ranged from 1×10^−13-1×10^−6 M. After 15 minutes of stimulation, the medium containing the peptide was removed and the cells were lysed (0.1M HCl, 0.1% Triton X-100). The clear lysate was collected, and 25 μl were used for determining the protein concentration (Pierce BCA Protein Assay Kit, Thermo Scientific, Rockford, USA) and the remaining fraction stored at −80° C. for later analysis.
cAMP concentration in cell lysates was determined using cAMP Enzyme Immunoassay Kit, Direct from Sigma-Aldrich (St. Louis, Mo., USA). Briefly, wells of 96-well plate (Goat Anti-Rabbit IgG pre-coated) were neutralized with 50 μl of Neutralizing Reagent. Next, 100 μl of acetylated cyclic AMP standard or cell lysate was added, followed by 50 μl of blue cAMP-Alkaline Phosphatase Conjugate and 50 μl of yellow EIA Rabbit Anti-cAMP antibody. The plate was then incubated on a shaker (˜500 rpm) for two hours at room temperature. […] The enzymatic reaction was stopped by adding 50 μl of Stop Solution, and the absorbance at 405 nm was measured immediately. The cAMP concentration was determined from non-linear standard curve using GraphPad Prism 5.0 software. […]

CCC(C)C1NC(=O)C(NC(=O)C(NC(=O)C(CCCNC(=N)N)NC(=O)C(N)CC(=O)O)C(C)C)CSCC(C(=O)O)NC(=O)C(Cc2c[nH]cn2)NC1=O (centres unmarked) [Pancyte]
lowest dose able to stimulate significant BDNF expression [1]: 10 pM | lowest dose able to stimulate significant BDNF expression [2]: 10 pM | BDNF stimulation compared to control [3]: still able to stimulate BDNF above control levels

TXA301: angiotensin (1-7) peptide tested; not defined in the text, possibly linear SEQ ID NO: 6 (DRVSIHC)
BDNF expression at doses 100,000 times higher than 1×10^−11 compared with 1×10^−11 M [1]: statistically similar levels of expression | lowest dose able to stimulate significant BDNF expression [1]: 10 pM | BDNF expression at doses 100,000 times higher than 1×10^−11 compared with 1×10^−11 M [2]: statistically similar levels of expression | lowest dose able to stimulate significant BDNF expression [2]: 10 pM

Asp^1-Arg^2-Val^3-Tyr^4-Ile^5-His^6-Pro^7 (DRVYIHP) [Ang (1-7), naturally-occurring Angiotensin (1-7), seven amino acid peptide]
lowest dose able to stimulate significant BDNF expression [1]: 10000 pM | lowest dose able to stimulate significant BDNF expression [2]: 10000 pM

Ala^1-Arg^2-Val^3-Ser^4-Ile^5-His^6-Cys^7 (ARVSIHC) [SEQ ID NO:24]
dose of the observed maximum of cAMP [4]: approximately 1×10^−9 M | lowest dose giving a significant increase in cAMP ([4]; dose response 1×10^−13-1×10^−6 M): 10 pM

Source: patent publication US20160296591A1, “COMPOSITIONS AND METHODS FOR TREATMENT OF BDNF-RELATED CONDITIONS” (TARIX PHARMACEUTICALS LTD., priority 2013, published 2016)
